This note sets out measurements from patent US20040106635A1, “Spiroisoquinoline compound, a method for preparing the same and an intermediate thereof” (priority 2001, published 2004).

Test [1] has as its target SK channel (specific binding of 125I-apamine to the membrane). Put plainly: Assay of 125I-apamine-binding inhibition (competitive binding to colon membrane fraction). To be noted: guinea pig colon membrane 10 μg/mL, 125I-apamin 10 pM, 4° C., 60 minutes; read-out: 125I-apamine-binding inhibitory activity (IC50; μM). The method, then:
(Assay of ^125I-Apamine-Binding Inhibition)
Male Hartley guinea pigs (Age: 4 weeks or more)
Each test drug was dissolved in a buffer (5 mM Tris-HCl, 5.4 mM KC1, 0.1% bovine serum albumin (BSA), pH 7.4; This buffer is hereinafter referred as buffer (3)). Hardly water-soluble test drugs were dissolved in dimethylsulfoxide followed by being diluted with buffer (3).
The experiments were carried out according to the method described by Hugues et al (Life Sciences 31, 437-443, 1982) and Catterall et al (Journal of Biochemistry 254, 11379-11387, 1979).
The colon was isolated from guinea pigs and mucosal cells were removed therefrom. The colon was homogenized together with a buffer solution (1)(40 mM Tris-HCl, 8% sucrose, pH 7.4) and the homogenate was centrifuged at 130,000 g for 60 minutes. The pellet was suspended in the buffer solution (1) and the suspension was layered on top of a discontinuous sucrose gradient composed of 33% sucrose and 40% sucrose. After centrifugation at 160,000 g for 90 minutes, the 8/33%-layer was collected and suspended in a buffer solution (2)(5 mM Tris-HCl, pH 7.4). The suspension was further centrifuged at 160,000 g for 60 minutes. The resultant pellet was suspended in buffer (3) at a final concentration of 500 μg of membrane protein per mL and used for binding assay (If necessary, this suspension was frozen and stored in a liquid nitrogen).
The membrane (10 μg/mL), ^125I-apamin (10 pM) and a test drug solution were added to the buffer (3) and the mixture was incubated at 4° C. for 60 minutes. After incubation, the mixture was filtered through cell-harvester and the radioactivity of ^125I-apamin retained by the filter was counted with a gamma-counter. The inhibitory activity (IC50) of the test drug on specific binding of ^125I-apamine to the membrane was calculated. The binding level of ^125I-apamine in the presence of large excess(100 nM) of apamine was defined as non-specific binding of ^125I-apamin.

The next test concerns guinea pig. Description: Evaluation of evacuation-promoting activity (fecal pellets after clonidine). The settings on record: 15 min after clonidine 30 μg/kg i.p., minimum dose with more fecal pellets than control at one hour. The class given is in vivo. How it is done:
(Evaluation of Evacuation-Promoting Activity)
Male Hartley guinea pigs (Age: 4 to 5 weeks; n=6 to 10/group)
Each test drug was dissolved in distilled water. Hardly water-soluble test drugs were suspended in a 0.5% carboxymethyl cellulose solution. Dose of the test drug solution was 5 mL/kg.
Guinea pigs (2 animals/cage) were encaged and acclimatized for a few days prior to the examinations. Fifteen minutes after the administration of clonidine (30 μg/kg, i.p.), each test compound solution (5 mL/kg) was administered intraperitoneally or orally to the animals. One hour after the administration of the test compound, number of evacuated fecal pellets in each cage was measured and recorded. Effective dose of the test compound was determined as a minimum dose in which the number of evacuated fecal pellets was grater than that in control group (group of guinea pigs to which clonidine and vehicle of the test compound were administered d).

Test [2] deals with acetylcholinesterase (AChE) (Homo sapiens, UniProt P22303). Description: Inhibitory activity on acetylcholinesterase (AChE), Ellman method. To be noted: 25° C., pH 7.4, in the presence of 1% BSA, absorbance at 412 nm. The class given is biochemical. How it is done:
(Inhibitory Activity on acetylcholinesterase (AChE))
Each test drug was dissolved in distilled water containing 0.1% BSA (pH 7.4). Hardly water-soluble test drugs were dissolved in dimethylsulfoxide followed by being diluted with distilled water containing 0.1% BSA (pH 7.4).
Measurements of AChE activity were carried out according to the method described by Ellman et al (Biochem Pharmacol 7, 88-95, 1961). A solution of 12 mM 5,5,-dithiobis-(2-nitrobenzoic acid) (50 μL; final concentration: 0.3 mM), a solution of AChE (2-4 U/mL; 50 μL) and a test drug solution (50 μL) were added, in this order, to 110 mM phosphate buffer (1.8 mL; final concentration: 100 mM; pH 7.4) and the mixture was incubated for a predetermined period (3 to 60 minutes) at 25° C. After incubation, a solution of 20 mM acetylthiocholin iodide (50 μL; final concentration: 0.5 mM) was added to the mixture. Immediately after stirring the mixture, absorbance at 412 nm of the reaction mixture was measured. In terms of change in the absorbance per unit time (z,900 E/min), the AChE-inhibitory activity of the test drug (IC50) was calculated. Concomitantly, the measurements of the present experiment were carried out in the presence of 1% BSA.
Background: DTNB colorimetry detects thiols as they appear.

Chain of acetylcholinesterase (AChE) (P22303 32-614, species assumed): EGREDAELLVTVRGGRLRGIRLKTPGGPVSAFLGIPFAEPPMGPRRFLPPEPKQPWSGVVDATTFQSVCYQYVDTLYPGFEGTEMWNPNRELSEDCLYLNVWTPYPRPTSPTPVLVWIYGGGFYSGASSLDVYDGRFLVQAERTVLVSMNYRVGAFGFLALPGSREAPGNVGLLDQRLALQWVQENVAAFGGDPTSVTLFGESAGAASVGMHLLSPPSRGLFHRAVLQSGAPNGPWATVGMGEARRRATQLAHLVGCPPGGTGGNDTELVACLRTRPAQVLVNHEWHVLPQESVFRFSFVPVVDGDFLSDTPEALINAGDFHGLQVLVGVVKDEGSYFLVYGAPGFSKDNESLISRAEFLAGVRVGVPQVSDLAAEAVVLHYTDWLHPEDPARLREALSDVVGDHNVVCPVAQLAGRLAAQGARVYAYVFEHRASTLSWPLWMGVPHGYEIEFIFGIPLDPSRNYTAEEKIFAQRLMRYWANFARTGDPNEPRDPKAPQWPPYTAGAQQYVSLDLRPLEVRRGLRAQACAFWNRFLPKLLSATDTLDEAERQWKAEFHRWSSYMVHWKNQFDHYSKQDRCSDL

In general, IC50 refers to the concentration that gives 50% inhibition. Turning to `COc1cc2c(cc1OC)C1(CCC(C(=O)N3CCN(c4ncnc5c4cnn5Cc4ccccn4)CC3)CC1)N(CCCN)CC2` (stereo not drawn) [282 (2)], the 50% inhibitory concentration (IC50) in test [1] amounted to 0.02 µM.
For `CCN1CCc2cc(OC)c(OC)cc2C1[C@H]1C[C@H](C(=O)N2CCN(c3ncnc4c3nnn4C)CC2)CC[C@]12c1cc(OC)c(OC)cc1CCN2C(=O)CCN(C)C(=O)OCOC(=O)C(C)(C)C` (relative stereo) [315 (2), (1R*,2R*(S*),4R*)-2′-[3-[N-(pivaloyloxy-methyloxycarbonyl)-N-methylamino]propionyl]-3′,4′-dihydro-6′,7′-dimethoxy-2-(2-ethyl-1,2,3,4-tetrahydro-6,7-dimethoxy-1-isoquinolyl)-4-[4-[3-methyl-3H-1,2,3-triazolo[4,5-d]pyrimidin-7-yl]-1-piperazinyl]carbonyl-spiro[cyclohexane-1,1′(2′H)-isoquinoline]], in the test on guinea pig, the “Evacuation-promoting activity in guine pig (Effective dose: mg/kg p.o.)” value was 0.3 mg/kg.
Still for that read-out and setting: as for `CCC(=O)OCOC(=O)N(C)CCC(=O)N1CCc2cc(OC)c(OC)cc2[C@]12CC[C@@H](C(=O)N1CCN(c3ncnc4c3cnn4Cc3ccncc3)CC1)C[C@@H]2C1c2cc(OC)c(OC)cc2CCN1CC` (relative stereo) [313 (1), (1R*,2R*(S*),4R*)-2′-[3-[N-(propionyloxymethyloxycarbonyl)-N-methylamino]propionyl]-3′,4′-dihydro-6′,7′-dimethoxy-2-(2-ethyl-1,2,3,4-tetrahydro-6,7-dimethoxy-1-isoquinolyl)-4-[4-[1-(4-pyridylmethyl)-1H-pyrazolo[3,4-d]pyrimidin-4-yl]-1-piperazinyl]carbonyl-spiro[cyclohexane-1,1′(2′H)-isoquinoline]], the figure is 0.1 mg/kg.
`CCCn1ncc2c(N3CCN(C(=O)[C@@H]4CC[C@]5(c6cc(OC)c(OC)cc6CCN5C(=O)CCN(C)C(=O)c5ccccc5COC(=O)c5ccccc5)[C@@H](C5c6cc(OC)c(OC)cc6CCN5CC)C4)CC3)ncnc21` (relative stereo) [386 (2), (1R*,2R*(S*),4R*)-2′-[3-[N-(2-benzoyloxymethylbenzoyl)-N-methylamino]-propionyl]-3′,4′-dihydro-6′,7′-dimethoxy-2-(2-ethyl-1,2,3,4-tetrahydro-6,7-dimethoxy-1-isoquinolyl)-4-[4-[1-propyl-1H-pyrazolo[3,4-d]pyrimidin-4-yl]-1-piperazinyl]carbonyl-spiro[cyclohexane-1,1′(2′H)-isoquinoline]]: the “Evacuation-promoting activity in guine pig (Effective dose: mg/kg p.o.)” value in the test with guinea pig worked out at 1 mg/kg.
As for `CCN1CCc2cc(OC)c(OC)cc2C1C1CC(C(=O)N2CCN(c3ncnc4c3nnn4C)CC2)CCC12c1cc(OC)c(OC)cc1CCN2C(=O)CCNC` (stereo not drawn) [Example 241(2)], the IC50 in test [1] was found to be 0.01 µM. Moreover, the “Evacuation-promoting activity in guinea pig (Effective dose: mg/kg i.p.)” value in the test with guinea pig was 0.03 mg/kg.
For `CCC(=O)OCOC(=O)N(C)CCC(=O)N1CCc2cc(OC)c(OC)cc2[C@]12CC[C@@H](C(=O)N1CCN(c3ncnc4c3cnn4Cc3ccncc3)CC1)C[C@@H]2C1c2cc(OC)c(OC)cc2CCN1CC` (relative stereo) [313 (2), (1R*,2R*(S*),4R*)-2′-[3-[N-(propionyloxymethyloxycarbonyl)-N-methylamino]propionyl]-3′,4′-dihydro-6′,7′-dimethoxy-2-(2-ethyl-1,2,3,4-tetrahydro-6,7-dimethoxy-1-isoquinolyl)-4-[4-[1-(4-pyridylmethyl)-1H-pyrazolo[3,4-d]pyrimidin-4-yl]-1-piperazinyl]carbonyl-spiro[cyclohexane-1,1′(2′H)-isoquinoline]], the “Evacuation-promoting activity in guine pig (Effective dose: mg/kg p.o.)” value in the test with guinea pig is listed as 0.1 mg/kg.
On to `CCCn1ncc2c(N3CCN(C(=O)C4CCC5(c6cc(OC)c(OC)cc6CCN5C(=O)CCNC)C(C5c6cc(OC)c(OC)cc6CCN5CC)C4)CC3)ncnc21` (stereo not drawn) [Example 236(2)], for which, in test [1], the half-inhibitory concentration (IC50) came out at 0.06 µM.
On to `CNCCCCN1CCc2cc(OC)c(OC)cc2C12CCC(C(=O)N1CCN(c3ncnc4c3cnn4Cc3ccccc3Cl)CC1)CC2` (stereo not drawn) [295 (4), (1α,4β)-2′-[4-(methylamino)butyl]-3′,4′-dihydro-6′,7′-dimethoxy-4-[4-[1-(2-chlorophenylmethyl)-1H-pyrazolo[3,4-d]pyrimidin-4-yl]-1-piperazinyl]carbonyl-spiro[cyclohexane-1,1′(2′H)-isoquinoline]], for which, in test [2], the concentration for half-maximal inhibition (IC50) is 0.02 µM.
Consider `CCN1CCc2cc(OC)c(OC)cc2[C@@H]1[C@H]1C[C@H](C(=O)N2CCN(c3ncnc4c3cnn4Cc3ccncc3)CC2)CC[C@]12c1cc(OC)c(OC)cc1CCN2C(=O)CCNC` (racemic) [Example 165(2), (1R*,2R*(S),4R)-2′-[3-(methylamino)propionyl]-3′,4′-dihydro-6′,7′-dimethoxy-2-(2-ethyl-1,2,3,4-tetrahydro-6,7-dimethoxy-1-isoquinolyl)-4-[4-[1-(4-pyridylmethyl)-1H-pyrazolo[3,4-d]pyrimidin-4-yl]-1-piperazinyl]carbonyl-spiro[cyclohexane-1,1′(2′H)-isoquinoline]], for which the figures for the 50% inhibitory concentration (IC50) in test [1] and in test [2] were 0.05 µM and 0.002 µM, respectively. Besides, the “Evacuation-promoting activity in guinea pig (Effective dose: mg/kg i.p.)” value with guinea pig came out at 0.01 mg/kg.
